Common to all, as to type: biochemical
One assay concerns the target T1, SIRT1 N346A (Homo sapiens, UniProt Q96EB6, N346A).
T1 construct: made in house
T1 sequence (Q96EB6 1-747 N346A): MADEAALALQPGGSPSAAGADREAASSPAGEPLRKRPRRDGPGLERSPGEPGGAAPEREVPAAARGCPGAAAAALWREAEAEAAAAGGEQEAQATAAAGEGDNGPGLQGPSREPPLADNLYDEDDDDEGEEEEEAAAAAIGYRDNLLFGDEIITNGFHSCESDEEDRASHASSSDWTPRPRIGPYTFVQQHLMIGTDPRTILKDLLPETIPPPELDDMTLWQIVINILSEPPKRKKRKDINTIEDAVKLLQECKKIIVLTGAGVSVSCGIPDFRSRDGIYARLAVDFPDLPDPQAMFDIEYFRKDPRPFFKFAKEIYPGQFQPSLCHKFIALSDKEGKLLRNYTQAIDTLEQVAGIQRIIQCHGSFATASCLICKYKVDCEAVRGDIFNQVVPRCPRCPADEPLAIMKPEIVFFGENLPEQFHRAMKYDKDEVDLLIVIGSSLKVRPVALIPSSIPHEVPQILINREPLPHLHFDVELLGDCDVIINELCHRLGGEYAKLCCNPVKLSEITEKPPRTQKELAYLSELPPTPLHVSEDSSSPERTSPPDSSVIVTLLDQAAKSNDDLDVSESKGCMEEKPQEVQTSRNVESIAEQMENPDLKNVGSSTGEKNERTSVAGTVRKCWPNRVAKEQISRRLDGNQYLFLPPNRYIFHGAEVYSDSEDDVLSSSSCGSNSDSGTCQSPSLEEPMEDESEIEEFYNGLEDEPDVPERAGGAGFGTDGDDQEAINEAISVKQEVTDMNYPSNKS
In words: Inhibitory constant on SIRT1 mutant N346A.

For a further assay, the target named is T2, SIRT1 D348A (Homo sapiens, UniProt Q96EB6, D348A).
T2 construct: made in house
T2 sequence (Q96EB6 1-747 D348A): T1 sequence (Q96EB6 1-747 N346A) with A346N, D348A
In words: Inhibitory constant on SIRT1 mutant D348A.

A further assay has as its target T3, SIRT1 F273L (Homo sapiens, UniProt Q96EB6, F273L).
T3 construct: made in house
T3 sequence (Q96EB6 1-747 F273L): T1 sequence (Q96EB6 1-747 N346A) with F273L, A346N
In words: Inhibitory constant on SIRT1 mutant F273L.

Residue numbers refer to the chain shown, from its start.

One compound from WO2019242687A1, “1,3-dioxane-4,6-dione compound, and preparation method, pharmaceutical composition, and application thereof” (Shanghai Institute of Materia Medica of CAS, priority 2018, dated 2018) can be followed below.

Broadly, the Ki is a dissociation constant, usually derived from enzyme kinetics or from competition with a known ligand.

`COc1cc(C=C2C(=O)OC(c3ccccc3)OC2=O)cc(Br)c1O` (stereo not shown) [Compound S3, 5-(3-bromo-4-hydroxy-5-methoxybenzylidene) -2-phenyl-1,3-dioxane-4,6-dione]: the Ki on SIRT1 N346A (mutant N346A) was found to be 2470 nM; on SIRT1 D348A, 4330 nM; at SIRT1 F273L, 850 nM. For the same compound, the “sensitivity of mutant protein to compound S3” value at SIRT1 N346A (mutation of residue 346 (so in the source)) was “敏感性降低”.
